Broadly, the melting point is the temperature, or range, at which the solid turns liquid.

The compound `O=C1c2c(OCc3ccccc3)cccc2-c2nn(CCN(CCO)Cc3ccccc3)c3ccc(NCCNCCO)c1c23` came in with a melting point of 134 to 137 °C.

`NCc1nc(-c2ncn3c2[C@@H]2CCN2C(=O)c2ccccc2-3)no1` had a melting point of 211 to 214 °C. On to `NC(=O)c1ccc(F)c2c1CC(N(CCc1c[nH]c3ccc(F)cc13)CC1CC1)CO2` (stereo not drawn), for which the melting point was found to be 132 °C.

As to `C=C(C)C(=O)N=c1ccn(-c2ccccc2)nc1`, the melting point was 136 °C.

`O=C(OCCCO)c1cc([N+](=O)[O-])cc([N+](=O)[O-])c1` yielded a melting point of 76 °C. The compound `CS(=O)CC(=O)c1ccc(F)cc1` (stereo not drawn) had a melting point of 94.5 to 96 °C. The compound `OC1c2cc(Cl)ccc2OCC1n1ccnc1` (stereo not drawn) returned a melting point of 153 to 160 °C. In the case of `CCCCCCCCCCCCCCCCOC[C@@H]1OCCC[C@H]1OP(=O)([O-])OCC[N+](C)(C)C` (relative stereo), the melting point lay within 220 to 224 °C.

On to `Cc1cc(Oc2[nH]c(=O)[nH]c(=O)c2C(C)C)cc(C2OCCO2)c1`, for which the melting point fell in the range of 201 to 203 °C. Next, `CN1Cc2c(C#N)ncn2-c2cccc(F)c2C1=O`: > 250 °C; `CN(C)C1CCN(c2nc(N3CCOCC3)c3ncnc(N(Cc4ccccc4)Cc4ccccc4)c3n2)CC1`: 163 °C. The compound `Cc1c(-c2ccc(C[C@H](NC(=O)c3c(F)cccc3C(F)(F)F)C(=O)O)cc2)c(=O)n(C)c(=O)n1C` came in with a melting point of 218 to 220 °C. The compound `CC[Si](CC)(CC)OC1C(=O)NC1c1cccs1` (stereo not drawn) registered a melting point of 70 to 71 °C. For the compound `N#CCCCN1CCOC(c2ccccc2)(c2ccccc2)CC1`, the melting point is 89 to 90 °C.

Take `c1ccc(Cn2cc(-c3ncc(-c4ccc5cc(OCc6nnn[nH]6)ccc5c4)o3)c3ccccc32)cc1`: the melting point is 244 to 246 °C.

`CCc1cc2c(ccc(=O)n2Cc2ccc(C(=O)O)cc2)c(CC)n1` had a melting point of 143 to 146 °C.

On to `CCCCOc1ccc(C(=O)c2cccc(C(=O)O)c2)c(O)c1`, for which the melting point was 175 °C.

`CC(=O)NCC1(c2ccccc2)CCN(CCC(c2ccccc2)(c2ccccc2)c2ccccc2)CC1` had a melting point of 154 to 167 °C. On to `CNc1nc(-c2cccc(-c3cccc(SC)c3)c2)c2cc(OC)c(OC)cc2n1`, for which the melting point was 195 to 197 °C. The compound `N#Cc1cnn(-c2nc(F)c(C(F)(F)F)cc2Cl)c1N` gave a melting point of 156 to 159 °C. Compound `O=C1c2ccccc2C(=O)c2c1cc(CBr)c1c2CCC1` came in with a melting point of 225 to 230 °C. `N#CC(Cl)=C(Cl)SC(Cl)=C(Cl)C#N`: the melting point is 87 °C.

As to `Cc1oc2cc(CCl)ccc2c1C`, the melting point was in the range of 63 to 65 °C. `COc1ccc(-c2cc3ccccc3[nH]2)cc1O`: the melting point amounted to 217 °C.

Compound `CC[C@@]12C[C@H](O)[C@](O)(c3c(F)cccc3F)C[C@H]1CCc1cc(OCc3cccnc3C)ccc12` gave a melting point of 80 to 83 °C. In turn, `CCCCCCCCCCCCCCCCCCOCC(CO)OC(=O)N1CCOCC1` (stereo not drawn) came in with a melting point of 48 to 49 °C. Regarding `CCCCOc1ccc(C(=O)Nc2ccc3cc(CN4CCCC4)cnc3c2C)cc1`, the melting point came out at 161 °C. Regarding `CCOC(=O)C(C)(C)Oc1ccc(-c2ccc(CCNC(=O)c3cccc(OC)c3OC)cc2)cc1`, the melting point was < 20 °C. The compound `CCc1nn(C2CCCC2)c2nc(COS(C)(=O)=O)nc(OS(C)(=O)=O)c12` had a melting point of 114 to 116 °C.

`COc1cccc2c(=O)c(C=O)coc12` registered a melting point of 174 to 176 °C. With `CCOC(=O)CCc1ccc(SCc2coc(/C=C/c3ccccc3)n2)cc1`, the melting point fell in the range of 77 to 78 °C.

`COc1ccc(-c2ccc(=O)n(Cc3nc4cc(F)ccc4o3)c2)cc1` returned a melting point of 115 °C. As to `Cc1nc2cc(NC(=O)c3cc4cc(F)cnc4n3Cc3ccncc3)ccc2n1C`, the melting point was in the range of 263 to 265 °C. Next, `Nc1ccc2c(c1)C(C(=O)Oc1ccccc1)CCC2` (stereo not drawn): 89 to 90 °C. `O=C(O)Cc1ccc(CCl)cc1` registered a melting point of 147 to 149 °C. On to `Fc1cc(CC2(Cc3ccncc3)c3cccnc3-c3sccc32)ccn1` (stereo not drawn), for which the melting point is 192 to 193 °C. `O=C1N(Cc2ncccc2F)c2ccccc2C12COc1cc3c(cc12)OCCO3` (stereo not drawn) displayed a melting point of 125 to 126 °C. Consider `COC(=O)c1cccc(OCc2c(Cl)cccc2Cl)c1`, for which the melting point lay within 96 to 98 °C. `NNC(=O)c1cccc(C(=O)N(NC(=O)c2ccccc2)C(=O)c2ccccc2)c1` displayed a melting point of 297 to 299 °C. Consider `CCOC(=O)c1cnc2n(c1=O)C(C)CCC2=NN` (stereo not drawn), for which the melting point fell in the range of 199 to 200 °C. For `CCN(CC)C(=O)n1ccc(S(=O)(=O)c2cc(Cl)ccc2C)n1`, the melting point is 96 to 97 °C. With `COC(=O)c1ccc(C(CCN(C)C)c2ncc[nH]2)cc1` (stereo not drawn), the melting point lay within 102 to 104 °C. `CC(=O)Nc1c(C(=O)c2ccc(F)cc2)[nH]c2cc(Cl)ccc12` yielded a melting point of 205 to 207 °C. As to `COC(=O)CCC(=O)c1ccc(Cl)c(S(N)(=O)=O)c1`, the melting point lay within 113 to 115 °C. `COc1cc2c(Nc3ccc(Br)cc3F)ncnc2cc1OCCCS(C)(=O)=O`: the melting point is > 250 °C. Turning to `CCOC(=O)c1cc2c(cn1)[nH]c1ccc(N)c(N3CCCCC3)c12`, the melting point is 188 to 190 °C. `CN(C)C=CC(=O)c1cc(Cl)cc(Cl)c1`: the melting point amounted to 100 °C. For `O=C1N(c2ccccc2)c2ccccc2C1(Cc1ccncc1)Cc1ccncc1`, the melting point lay in the range of 186 to 188 °C. With `CS(=O)(=O)c1ccc(-c2c(-c3ccccc3)nc3n2CCS3)cc1`, the melting point fell in the range of 177 to 179 °C. As for `CCCc1nc2c(N)nc3ccccc3c2n1CCCCCC(N)=O`, the melting point fell in the range of 210 to 211 °C.

`CCOC(=O)c1c(O)c2cccc3c2n(c1=O)CCO3`: the melting point lay in the range of 160 to 164 °C. `CON=C(OC)C(=O)c1ncsc1C` displayed a melting point of 65 °C.

For the compound `O=C(C=Cc1cccnc1)NCCCCC1CCN(Cc2ccccc2)CC1`, the melting point is 88 to 90 °C.

In turn, `O=C1NC(=O)C(Cc2ccc(OCCn3ncc4ccccc4c3=O)cc2)S1` (stereo not drawn) returned a melting point of 165 °C.

The compound `Cc1ccnc(N2CCN(CCc3c(-c4ccc(O)cc4)n4c5c(cccc35)CCC4)CC2)c1` displayed a melting point of 220 °C. Turning to `CS(=O)(=O)Nc1cc(C(O)CNCCCCCCOCCC2CCCCC2)ccc1O` (stereo not drawn), the melting point is 99 to 101 °C. `CCc1nc2c(C)cc(C)nc2n1Cc1ccc(C(=C(Br)C(=O)O)c2ccccc2)cc1`: the melting point was in the range of 125 to 129 °C. Next, `CC(C)CCNc1nc(N2CCCCC2)nc2c(NCCC(C)C)nc(N3CCCCC3)nc12`: 192 to 194 °C; `COc1cc(OC)nc(Oc2cccc3c2C(=O)OC3Cl)n1` (stereo not drawn): 143 to 144 °C. Compound `[N-]=[N+]=N[C@@H]1CN2C(=O)N(c3cc(Cl)nc(Cl)c3)C(=O)[C@@]2(Cc2ccc(OC(F)(F)F)cc2)C1` displayed a melting point of 140 °C. `COC(=O)c1ccc(-c2ccc(-c3ccc4c(c3)C(C)(C)CCC4(C)C)[nH]2)cc1` registered a melting point of 176 to 179 °C. Compound `COc1nc2cc(F)ccc2nc1Cl` gave a melting point of 93 to 95 °C. On to `CSC1C(=O)Nc2c(Oc3ccc4ccccc4c3)cccc21` (stereo not drawn), for which the melting point fell in the range of 174 to 175 °C.

As for `CCCn1c(=O)c2c(nc(/C=C/c3ccc4c(c3)OCO4)n2C)n(CCC)c1=O`, the melting point was 152 to 155 °C. In turn, `COC(=O)c1cccc2cc(Cc3cc(NC(C)=O)ncn3)ccc12` gave a melting point of 158 to 160 °C. Turning to `Cc1cc(-c2cccc(-c3ccc(CCCNC4CCc5ccccc5C4)cc3)n2)c(C)[nH]1` (stereo not drawn), the melting point was 120 to 130 °C. Compound `CCCCCCOc1cc2c(cc1/C(C)=C/C=C/C(C)=C/C(=O)O)C(C)(C)CCCS2(=O)=O` showed a melting point of 164 to 165 °C. `Cc1cccc(Nc2cc(Nc3cccc(OCC(=O)N(CCO)CCO)c3)ncn2)c1` displayed a melting point of 112 to 113 °C. `O=C(N[C@@H]1C=CC[C@H]1O)OCC(Cl)(Cl)Cl` showed a melting point of 82 to 84 °C.

`Cc1cc(NS(=O)(=O)c2ccccc2)cc(C)c1S(=O)(=O)C(Cl)(Cl)[N+](=O)[O-]`: the melting point was 112 to 114 °C.

`Cc1ccc(N2CCCN(c3ccnc4sc(C(N)=O)c(N)c34)CC2)cc1[N+](=O)[O-]` yielded a melting point of 114 to 117 °C. Take `CC(C)/C=C1\NC(=O)CC1=O`: the melting point fell in the range of 134 to 136 °C. `N#CC(c1ccccc1)c1ccc(Cl)nn1` (stereo not drawn) returned a melting point of 131 °C. As to `Cc1ccc(CN2CCN(C3=NC4(C=CC(=O)C=C4)C(c4ccccc4)=C3)CC2)cc1`, the melting point was found to be 135 °C.

With `O=C(Nc1ccccc1F)c1c(O)ccn2c1nc1ccccc12`, the melting point fell in the range of 237 to 238 °C. The compound `CS(=O)(=O)CCOCCn1cnc2c(N)nc3ccccc3c21` gave a melting point of 145 to 148 °C. With `Nc1ccc2c(c1)Sc1ccccc1N2` the figure was 150 to 156 °C; with `COc1cccc(OC)c1C(=O)Nc1nnc(-c2ccc(NC(C)=O)cc2)s1`, 211 to 213 °C.

For the compound `Cc1ccc(C)c2c1OCc1ccccc1C2C(=O)Nc1c(C(C)C)cccc1C(C)C` (stereo not drawn), the melting point lay within 149 to 150 °C. With `Cc1c(Cc2ccccc2)c(=O)n(Cc2ccccc2)c2cc(OCC(N)=O)cc(OCC(N)=O)c12` the figure was 252 to 253 °C; with `COc1ccc(-c2cc(F)c(F)cc2-c2ccc(S(N)(=O)=O)cc2)cc1F`, 132 to 133 °C; with `COC(=O)c1cccc2c1c(S(=O)(=O)NC(C)(C)C)nn2C`, 189 to 190 °C. `Cc1ccc2c(c1)C=Cc1oc(C)nc1C2c1cn(C)c(=O)[nH]c1=S` (stereo not drawn) displayed a melting point of 146 to 150 °C. For `CCOC(=O)CNC(=O)N1CS(=O)c2c1cc(C(F)(F)F)cc2[N+](=O)[O-]` (stereo not drawn), the melting point came out at 150 °C.

Compound `CC(C)N(C(C)C)S(=O)(=O)N[C@@H](Cc1ccc(Oc2nccc3cnccc23)cc1)C(=O)O` yielded a melting point of 112 °C. With `CC(C)(C)OC(=O)OCC(COC(=O)OC(C)(C)C)OCn1cnc2c(=O)[nH]c(N)nc21` the figure was 192 to 193 °C; with `CCCN1C(=O)N2CC(CC)N=C2c2c1ncn2C` (stereo not drawn), 124 to 126 °C.

In the case of `O=C1CCc2c1cccc2C(=O)c1ccc(Cl)cc1`, the melting point worked out at 146 °C.

(Values after a melting point compilation (Tetko et al.; mined from patent text by program, amines drawn as free bases though some values may be those of a salt).)
